This passage reports EC50 results from patent US20150133495A1 (ViroCura Therapeutics, Inc., priority 2013, published 2015).

Each structure is given as a SMILES string.

This assay concerns HCV replicon (HCV1b sub-genomic, Huh-7 cells). The assay can be described thus: HCV replicon RNA replication assay (luciferase reporter). The format is cell-based, Hepatitis C virus (CON-1 genotype b). The settings on record: Hepatitis C virus, Huh-7, 72 h, read-out: EC50 (Range). Here is the method: All curve fitting was conducted using non-linear regression analyses from PRISM (version 4.0c, GraphPad Inc.) and the determination of Rmax and EC50 or IC50 parameters were obtained from sigmoidal dose-response phase (variable slope) equation.
The replicon HCV1b is generated based on the wild-type sequence CON-1 genotype b (GenBank accession number AJ238799; Lohmann et al., Science 1999, 285: 110-113) and expressed the sub-genomic fragment HCV NS3-NS4A-NS4B-NS5A-NS5B. The replicon contain a hybrid HCV-IRES 5′UTR, a modified luciferase reporter gene expressed as a luciferase-Ubi-neomycin phosphotransferase gene fusion and an EMCV IRES NS3-NS5B subgenomic fragment with its 3′UTR. To generate cell lines harboring the replicon, Huh-7 cells are electroporated with purified in vitro HCV1b RNA transcripts and stable cell lines are selected in the presence of G418. Stable replicon cell lines are established as described in Science 1999, 285: 110-113. The amount of luciferase expressed by selected cells directly correlates with the level of HCV RNA replication, as measured by real-time PCR.
Stable HCV replicon cells are maintained in Dulbecco's Modified Eagle Medium (DMEM) supplemented with 10% FBS and 0.5 mg/ml G418. During the assay, DMEM supplemented with 10% FBS, containing 0.5% DMSO and lacking G418 are used as assay medium. For the assay, cell stocks are trypsinized and diluted in assay medium to distribute 7,500 cells in 96-well plates. The plates are then incubated at 37° until compound addition. Serial dilutions of the test compound are prepared in 100% DMSO, before dilution in assay medium to a final DMSO concentration of 0.5% to generate a concentration dose response curves. A fixed volume from each well of the compound dilution plate is transferred to a corresponding well of the cell culture plate. The cell culture plate is incubated at 37° C. with 5% CO2 for 72 hours. Following the 72 h incubation period, the medium is aspirated from the 96-well assay plate and a volume of 50_l of lysis buffer 100 mM Tris acetate, 20 mM Mg acetate, 2 mM EGTA, 3.6 mM ATP, 1% Brij 58, 0.7%_-mercaptoethanol containing 45_g/ml luciferine (pH 7.9) is added to each well. The luciferase activity is determined using the luciferase substrate and the luminescence is detected on a MicroBeta JET 1450 LSC & Luminescence Counter (Perkin Elmer) instrument. The luminescence in each well of the culture plate is a measure of the amount of HCV RNA replication in the presence of various concentrations of inhibitor. The % inhibition is calculated for each inhibitor concentration and used to determine the concentration that results in 50% inhibition of HCV replication (EC50).
For `Cc1nc(/C(N)=N\OC(=O)c2c(-c3ccccc3)noc2C)cs1` [Example 30, (E)-2-methyl-N′-((5-methyl-3-phenylisoxazole-4-carbonyl)oxy)thiazole-4-carboximidamide], the concentration for a half-maximal effect (EC50) was 1 to 10 µM.

Consider `Cc1noc(C)c1C(=O)O/N=C(\N)c1ccc(Oc2ccccc2)cc1` [Example 31, (Z)—N′-((3,5-dimethylisoxazole-4-carbonyl)oxy)-4-phenoxybenzimidamide], for which the EC50 fell in the range of 1 to 10 µM.

`Cc1noc(C)c1C(=O)O/N=C(\N)c1ccc(OCc2ccc(Cl)cc2)cc1` [Example 32, (Z)-4-((4-chlorobenzyl)oxy)-N′-((3,5-dimethylisoxazole-4-carbonyl)oxy)benzimidamide]: the concentration for a half-maximal effect (EC50) is 0.5 to 1 µM.

`N/C(=N\OC(=O)c1cccc2ccccc12)c1ccc2c(c1)OCO2` [Example 33, (Z)—N′-((1-naphthoyl)oxy)benzo[d][1,3]dioxole-5-carboximidamide]: the EC50 was 0.5 to 1 µM.

`Cc1onc(-c2ccccc2Cl)c1C(=O)O/N=C(\N)c1cccc(Br)c1` [Example 34, (Z)-3-Bromo-N′-((3-(2-chlorophenyl)-5-methylisoxazole-4-carbonyl)oxy)benzimidamide]: the concentration for a half-maximal effect (EC50) lay within 1 to 10 µM.

On to `N/C(=N\OC(=O)c1ccccc1C(F)(F)F)c1ccc2c(c1)OCO2` [Example 35, (Z)—N′-((2-(trifluoromethyl)benzoyl)oxy)benzo[d][1,3]dioxole-5-carboximidamide], for which the EC50 fell in the range of 1 to 10 µM.

Regarding `Cc1onc(-c2ccccc2Cl)c1C(=O)O/N=C(\N)c1ccc(-c2csnn2)cc1` [Example 36, (Z)—N′-((3-(2-chlorophenyl)-5-methylisoxazole-4-carbonyl)oxy)-4-(1,2,3-thiadiazol-4-yl)benzimidamide], the EC50 lay in the range of 0.5 to 1 µM.

Regarding `Cc1cccc(C)c1C(=O)O/N=C(\N)Cc1ccc(OCc2ccc(F)cc2)cc1` [Example 37, (Z)—N′-((2,6-dimethylbenzoyl)oxy)-2-(4-((4-fluorobenzyl)oxy)phenyl)acetimidamide], the concentration for a half-maximal effect (EC50) fell in the range of 0.5 to 1 µM.

`CC(C)OC(=O)c1ccccc1-c1ccccc1C(=O)O/N=C(\N)c1ccc2c(c1)OCO2` [Example 38, (Z)-isopropyl 2′-((((amino(benzo[d][1,3]dioxol-5-yl)methylene)amino)oxy)carbonyl)-[1,1′-biphenyl]-2-carboxylate]: the 50% effective concentration (EC50) was less than 0.5 µM.

As for `Cc1cccc(C)c1C(=O)O/N=C(\N)c1ccc(OCc2ccc(Cl)cc2)cc1` [Example 40, (Z)-4-((4-chlorobenzyl)oxy)-N′-((2,6-dimethylbenzoyl)oxy)benzimidamide], the EC50 is less than 0.5 µM.

In the case of `Cc1cccc(C)c1C(=O)O/N=C(\N)c1ccccc1OCc1ccc(F)cc1` [Example 41, (Z)—N′-((2,6-dimethylbenzoyl)oxy)-2-((4-fluorobenzyl)oxy)benzimidamide], the concentration giving a half-maximal response (EC50) is less than 0.5 µM.

As for `Cc1cccc(C)c1C(=O)O/N=C(\N)c1ccc(-c2csnn2)cc1` [Example 42, (Z)—N′-((2,6-dimethylbenzoyl)oxy)-4-(1,2,3-thiadiazol-4-yl)benzimidamide], the EC50 lay within 0.5 to 1 µM.

On to `Cc1ccc2ccccc2c1C(=O)O/N=C(\N)c1ccc2c(c1)OCO2` [Example 43, (Z)—N′-((2-methyl-1-naphthoyl)oxy)benzo[d][1,3]dioxole-5-carboximidamide], for which the EC50 lay within 0.5 to 1 µM.

With `N/C(=N\OC(=O)c1ccccc1Cc1ccccc1)c1ccc2c(c1)OCO2` [Example 44, (Z)—N′-((2-benzylbenzoyl)oxy)benzo[d][1,3]dioxole-5-carboximidamide], the concentration giving a half-maximal response (EC50) was in the range of 0.5 to 1 µM.

Turning to `N/C(=N\OC(=O)c1ccccc1-c1ccccc1C(=O)O)c1ccc2c(c1)OCO2` [Example 45, (Z)-2′-((((amino(benzo[d][1,3]dioxol-5-yl)methylene)amino)oxy)carbonyl)-[1,1′-biphenyl]-2-carboxylic acid], the EC50 was more than 10 µM.

For the compound `COc1ccc(/C(N)=N/OC(=O)c2c(-c3ccccc3Cl)noc2C)cc1` [Example 46, (Z)—N′-((3-(2-chlorophenyl)-5-methylisoxazole-4-carbonyl)oxy)-4-methoxybenzimidamide], the EC50 was in the range of 0.5 to 1 µM.

Turning to `Cc1onc(-c2ccccc2Cl)c1C(=O)O/N=C(\N)c1ccc2ccccc2n1` [Example 47, (Z)—N′-((3-(2-chlorophenyl)-5-methylisoxazole-4-carbonyl)oxy)quinoline-2-carboximidamide], the EC50 lay in the range of 1 to 10 µM.

As for `Cc1onc(-c2ccccc2Cl)c1C(=O)O/N=C(\N)c1ccc(OCc2ccc(Cl)nc2)cc1` [Example 49, (Z)—N′-((3-(2-chlorophenyl)-5-methylisoxazole-4-carbonyl)oxy)-4-((6-chloropyridin-3-yl)methoxy)benzimidamide], the EC50 is less than 0.5 µM.

Consider `COc1cccc(/C(N)=N/OC(=O)c2c(-c3ccccc3Cl)noc2C)c1` [Example 50, (Z)—N′-((3-(2-chlorophenyl)-5-methylisoxazole-4-carbonyl)oxy)-3-methoxybenzimidamide], for which the concentration for a half-maximal effect (EC50) was in the range of 0.5 to 1 µM.
